Patent US7196110B2, “N-substituted tricyclic 3-aminopyrazoles as inhibitors for the treatment of cell proliferative disorders” (Janssen Phamaceutica N.V., priority 2002, dated 2007)

Target: T1, PDGF-receptor beta enzyme comprising the tyrosine kinase domain (Homo sapiens, UniProt P09619)
T1 construct: from amino acid 545 to 1106 of GenBank Access NO: AAA36427
Assay: Inhibition of PDGF-receptor kinase activity (cell-free, PLC1 peptide, 33P Flashplate)
Assay type: biochemical
Details: PDGF-R kinase activity; for inhibition at 10 µM: compound at 10 uM, read-out: Percent Inhibition @ 10 uM; for IC50: read-out: IC50
In short: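 Recombinant kinase domain (aa 545–1106) phosphorylated a biotinylated PLC1 peptide with 5 μM ATP plus 33P-γ-ATP, in Tris pH 8, MgCl2, Na3VO4 and 1 mM DTT, for 60 min at 30 °C. Retained 33P was counted after washing. IC50 is the concentration halving activity versus no-inhibitor reactions.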

T1 sequence (P09619 545-1106): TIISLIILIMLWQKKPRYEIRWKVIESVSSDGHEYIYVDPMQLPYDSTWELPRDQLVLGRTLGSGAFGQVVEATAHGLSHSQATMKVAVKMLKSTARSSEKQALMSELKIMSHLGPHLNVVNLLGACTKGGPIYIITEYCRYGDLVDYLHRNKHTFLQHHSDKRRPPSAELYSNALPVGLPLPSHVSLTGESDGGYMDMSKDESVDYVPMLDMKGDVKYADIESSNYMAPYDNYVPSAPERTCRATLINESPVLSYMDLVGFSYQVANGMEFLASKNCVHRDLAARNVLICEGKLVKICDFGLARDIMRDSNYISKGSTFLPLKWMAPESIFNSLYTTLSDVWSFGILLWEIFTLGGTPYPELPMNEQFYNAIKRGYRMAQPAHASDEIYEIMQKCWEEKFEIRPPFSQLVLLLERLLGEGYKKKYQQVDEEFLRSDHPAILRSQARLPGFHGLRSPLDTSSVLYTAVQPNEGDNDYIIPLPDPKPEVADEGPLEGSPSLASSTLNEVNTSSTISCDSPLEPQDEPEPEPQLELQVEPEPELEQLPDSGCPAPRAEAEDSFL

Compound | inhibition at 10 µM [%] | IC50 [nM]
COc1ccc2c(c1)Cc1c-2n[nH]c1Nc1ccc(F)cc1 [Compound 82, (4-Fluoro-phenyl)-(6-methoxy-2,4-dihydro-indeno[1,2-c]pyrazol-3-yl)-amine] | 79 | 273
COc1ccc2c(c1)Cc1c-2n[nH]c1Nc1cccc(Br)c1 [Compound 83, (3-Bromo-phenyl)-(6-methoxy-2,4-dihydro-indeno[1,2-c]pyrazol-3-yl)-amine] | 93 | 71.9
COc1ccc2c(c1)Cc1c-2n[nH]c1Nc1cc(OC)ccc1OC [Compound 85, (2,5-Dimethoxy-phenyl)-(6-methoxy-2,4-dihydro-indeno[1,2-c]pyrazol-3-yl)-amine] | 61 | 5820
COc1ccc2c(c1)Cc1c-2n[nH]c1Nc1ccc(OC(F)(F)F)cc1 [Compound 88, (6-Methoxy-2,4-dihydro-indeno[1,2-c]pyrazol-3-yl)-(4-trifluoromethoxy-phenyl)-amine] | 42 | 20800
COc1ccc2c(c1)Cc1c-2n[nH]c1Nc1ccc(C(F)(F)F)cc1 [Compound 89, (6-Methoxy-2,4-dihydro-indeno[1,2-c]pyrazol-3-yl)-(4-trifluoromethyl-phenyl)-amine] | 88 | 886
CN(C)c1ccc2c(c1)Cc1c-2n[nH]c1Nc1ccccc1 [Compound 92, N6,N6-Dimethyl-N3-phenyl-2,4-dihydro-indeno[1,2-c]pyrazole-3,6-diamine] | 75 | 383
c1ccc(Nc2[nH]nc3c2CCc2ccccc2-3)cc1 [Compound 93, (4,5-Dihydro-2H-benzo[g]indazol-3-yl)-phenyl-amine] | 88 | 1030
c1ccc(Nc2[nH]nc3c2Cc2sccc2-3)cc1 [Compound 94, (5,7-Dihydro-1-thia-4,5-diaza-cyclopenta[a]pentalen-6-yl)-phenyl-amine] | 95 | 415
Brc1cccc(Nc2[nH]nc3c2Cc2cc4c(cc2-3)OCO4)c1 [Compound 95, (3-Bromo-phenyl)-(2,9-dihydro-5,7-dioxa-2,3-diaza-cyclopenta[a]-s-indacen-1-yl)-amine] | 91 | 63
Cc1cccc2c1Cc1c-2n[nH]c1Nc1ccc(F)cc1 [Compound 98, (4-Fluoro-phenyl)-(5-methyl-2,4-dihydro-indeno[1,2-c]pyrazol-3-yl)-amine] | 26 | 30700
Cc1cccc2c1Cc1c-2n[nH]c1Nc1cccc(F)c1 [Compound 99, (3-Fluoro-phenyl)-(5-methyl-2,4-dihydro-indeno[1,2-c]pyrazol-3-yl)-amine] | 87.5 | 1470
Cc1cccc2c1Cc1c-2n[nH]c1Nc1cccnc1 [Compound 100, (5-Methyl-2,4-dihydro-indeno[1,2-c]pyrazol-3-yl)-pyridin-3-yl-amine] | 81 | 1720
COc1ccc(OC)c(Nc2[nH]nc3c2Cc2c(C)cccc2-3)c1 [Compound 101, (2,5-Dimethoxy-phenyl)-(5-methyl-2,4-dihydro-indeno[1,2-c]pyrazol-3-yl)-amine] | 52 | 1090
COc1ccc(Nc2[nH]nc3c2Cc2c(C)cccc2-3)c(OC)c1 [Compound 102, (2,4-Dimethoxy-phenyl)-(5-methyl-2,4-dihydro-indeno[1,2-c]pyrazol-3-yl)-amine] | 50 | 3400
Cc1cccc2c1Cc1c-2n[nH]c1Nc1ccc(OC(F)(F)F)cc1 [Compound 104, (5-Methyl-2,4-dihydro-indeno[1,2-c]pyrazol-3-yl)-(4-trifluoromethoxy-phenyl)-amine] | 36 | 666
Cc1cccc2c1Cc1c-2n[nH]c1Nc1ccc(C(F)(F)F)cc1 [Compound 105, (5-Methyl-2,4-dihydro-indeno[1,2-c]pyrazol-3-yl)-(4-trifluoromethyl-phenyl)-amine] | 69 | 1880
CC1c2ccccc2-c2n[nH]c(Nc3cccc(F)c3)c21 (stereo not shown) [Compound 108, (3-Fluoro-phenyl)-(4-methyl-2,4-dihydro-indeno[1,2-c]pyrazol-3-yl)-amine] | 82 | 300
CC1c2ccccc2-c2n[nH]c(Nc3cccnc3)c21 (stereo not shown) [Compound 109, (4-Methyl-2,4-dihydro-indeno[1,2-c]pyrazol-3-yl)-pyridin-3-yl-amine] | 83 | 537
COc1ccc(OC)c(Nc2[nH]nc3c2C(C)c2ccccc2-3)c1 (stereo not shown) [Compound 110, (2,5-Dimethoxy-phenyl)-(4-methyl-2,4-dihydro-indeno[1,2-c]pyrazol-3-yl)-amine] | 80 | 189
CC1c2ccccc2-c2n[nH]c(Nc3cc(F)ccc3F)c21 (stereo not shown) [Compound 112, (2,5-Difluoro-phenyl)-(4-methyl-2,4-dihydro-indeno[1,2-c]pyrazol-3-yl)-amine] | 72 | 83
CC1c2ccccc2-c2n[nH]c(Nc3ccc(OC(F)(F)F)cc3)c21 (stereo not shown) [Compound 113, (4-Methyl-2,4-dihydro-indeno[1,2-c]pyrazol-3-yl)-(4-trifluoromethoxy-phenyl)-amine] | 60 | 2450
COc1cc2c(cc1OC)-c1n[nH]c(Nc3cccc(C(=O)O)c3)c1C2 [Compound 115, 3-(6,7-Dimethoxy-2,4-dihydro-indeno[1,2-c]pyrazol-3-ylamino)-benzoic acid] | 82 | 3060
Nc1ccc2c(c1)Cc1c-2n[nH]c1Nc1cccc(Br)c1 [Compound 117, N3-(3-Bromo-phenyl)-2,4-dihydro-indeno[1,2-c]pyrazole-3,6-diamine] | 98 | 130
COC(=O)c1cccc(Nc2[nH]nc3c2Cc2cc(N)ccc2-3)c1 [Compound 120, 3-(6-Amino-2,4-dihydro-indeno[1,2-c]pyrazol-3-ylamino)-benzoic acid methyl ester] | 87 | 308
Nc1ccc2c(c1)Cc1c-2n[nH]c1Nc1cccc(F)c1 [Compound 121, N3-(3-Fluoro-phenyl)-2,4-dihydro-indeno[1,2-c]pyrazole-3,6-diamine] | 92 | 143
COc1cccc(Nc2[nH]nc3c2Cc2cc(N4CCN(C)CC4)ccc2-3)c1 [Compound 123, (3-Methoxy-phenyl)-[6-(4-methyl-piperazin-1-yl)-2,4-dihydro-indeno[1,2-c]pyrazol-3-yl]-amine] | 87 | 228

More lines, in order of falling IC50, values ahead:

inhibition at 10 µM [%] | IC50 [nM] | Compound
29 | 85900 | COc1cc2c(cc1OC)-c1n[nH]c(NCCN3CCCCC3)c1C2 [Compound 81, (6,7-Dimethoxy-2,4-dihydro-indeno[1,2-c]pyrazol-3-yl)-(2-piperidin-1-yl-ethyl)-amine]
43 | 4100 | Cc1cccc2c1Cc1c-2n[nH]c1Nc1cc(F)ccc1F [Compound 103, (2,5-Difluoro-phenyl)-(5-methyl-2,4-dihydro-indeno[1,2-c]pyrazol-3-yl)-amine]
71 | 3440 | Oc1cc2c(cc1O)-c1n[nH]c(Nc3cccc(Br)c3)c1C2 [Compound 125, 3-(3-Bromo-phenylamino)-2,4-dihydro-indeno[1,2-c]pyrazole-6,7-diol]
57 | 2530 | COc1ccc2c(c1)Cc1c-2n[nH]c1Nc1ccc(OC)c(OC)c1 [Compound 86, (3,4-Dimethoxy-phenyl)-(6-methoxy-2,4-dihydro-indeno[1,2-c]pyrazol-3-yl)-amine]
80 | 1370 | CC1c2ccccc2-c2n[nH]c(Nc3cccc(C(F)(F)F)c3)c21 (stereo not shown) [Compound 114, (4-Methyl-2,4-dihydro-indeno[1,2-c]pyrazol-3-yl)-(3-trifluoromethyl-phenyl)-amine]
56 | 1270 | COc1ccc(Nc2[nH]nc3c2C(C)c2ccccc2-3)cc1 (stereo not shown) [Compound 107, (4-Methoxy-phenyl)-(4-methyl-2,4-dihydro-indeno[1,2-c]pyrazol-3-yl)-amine]
38 | 1050 | CC1c2ccccc2-c2n[nH]c(Nc3ccc(F)cc3)c21 (stereo not shown) [Compound 106, (4-Fluoro-phenyl)-(4-methyl-2,4-dihydro-indeno[1,2-c]pyrazol-3-yl)-amine]
86 | 710 | COc1ccc2c(c1)Cc1c-2n[nH]c1Nc1cccnc1 [Compound 84, (6-Methoxy-2,4-dihydro-indeno[1,2-c]pyrazol-3-yl)-pyridin-3-yl-amine]
65 | 176 | c1cncc(Nc2[nH]nc3c2Cc2cc4c(cc2-3)OCO4)c1 [Compound 126, (2,9-Dihydro-5,7-dioxa-2,3-diaza-cyclopenta[a]-s-indacen-1-yl)-pyridin-3-yl-amine]
95 | 110 | COc1ccc(Nc2[nH]nc3c2C(C)c2ccccc2-3)c(OC)c1 (stereo not shown) [Compound 111, (2,4-Dimethoxy-phenyl)-(4-methyl-2,4-dihydro-indeno[1,2-c]pyrazol-3-yl)-amine]
93 | 76 | Fc1cccc(Nc2[nH]nc3c2Cc2cc4c(cc2-3)OCO4)c1 [Compound 96, (2,9-Dihydro-5,7-dioxa-2,3-diaza-cyclopenta[a]-s-indacen-1-yl)-(3-fluoro-phenyl)-amine]
91 | 69 | COc1ccc2c(c1)Cc1c-2n[nH]c1Nc1cc(F)ccc1F [Compound 87, (2,5-Difluoro-phenyl)-(6-methoxy-2,4-dihydro-indeno[1,2-c]pyrazol-3-yl)-amine]
